Reference: ChEMBL document CHEMBL1201862, “PubChem BioAssay data set” (2004)
The source made the active and inactive calls.

What was measured:
INS1 [1] = test: beta-cell survival under cytokine stress – INS-1E, ATP luminescence, dry powder, dose response (AID 488844); format: functional, cell-based; conditions: Rattus norvegicus
INS1 [2] = test: suppression of NO production in INS-1E cells – cell-based, Griess absorbance, dry powder, set 2, dose response (AID 488868); format: functional; conditions: Rattus norvegicus
[3] = THP-1 cell cytotoxicity, cytotoxicity control, set 4 (AID 504911); format: functional; conditions: Mycobacterium tuberculosis
[4] = THP-1 cell cytotoxicity, dose response, cytotoxicity control, set 3 (AID 504852); format: functional; conditions: Mycobacterium tuberculosis
[5] = molecular target: Phosphorylase b kinase gamma catalytic chain, liver/testis isoform (Homo sapiens, UniProt P15735); format: functional;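 further: PHKG2 measured as one member of a kinome-wide kinase panel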
Chain of Phosphorylase b kinase gamma catalytic chain, liver/testis isoform (P15735 whole entry, the tested form may be a part, canonical isoform): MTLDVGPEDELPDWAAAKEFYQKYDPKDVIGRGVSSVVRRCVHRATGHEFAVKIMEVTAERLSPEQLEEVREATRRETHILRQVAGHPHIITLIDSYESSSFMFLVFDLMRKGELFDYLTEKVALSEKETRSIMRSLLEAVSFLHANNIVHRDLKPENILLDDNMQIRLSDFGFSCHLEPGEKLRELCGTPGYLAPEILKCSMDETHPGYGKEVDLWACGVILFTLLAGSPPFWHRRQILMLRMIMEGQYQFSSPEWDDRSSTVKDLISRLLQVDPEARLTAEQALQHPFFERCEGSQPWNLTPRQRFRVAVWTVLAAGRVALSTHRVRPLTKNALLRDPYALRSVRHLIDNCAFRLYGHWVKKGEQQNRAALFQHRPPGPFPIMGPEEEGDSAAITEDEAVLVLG

CHO = CHO cell viability loss, potency – luminescence, cytotoxicity control for TLR9-MyD88 binding inhibitor project, dose response (AID 588339); format: functional, cell-based, hamster; conditions: Cricetulus griseus;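 further: CHO cells stably coexpressing TLR9 and MyD88 fusions from primary screen; compound exposure lasted 48 hours before viability readout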
[6] = molecular target: T1, Endoribonuclease toxin MazF (Escherichia coli K-12, UniProt P0AE70); test: activation of MazEF endoribonuclease cleavage – biochemical, fluorescence, single-stranded RNA substrate, uHTS hits, dose response (AID 588481); format: functional
T1 sequence (P0AE70 whole entry): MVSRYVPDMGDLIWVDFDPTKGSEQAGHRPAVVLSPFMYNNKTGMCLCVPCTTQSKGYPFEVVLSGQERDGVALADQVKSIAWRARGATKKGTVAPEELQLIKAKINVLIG

Beta Lactamase = Beta Lactamase (Pseudomonas aeruginosa, UniProt Q932Y6); test: BLA reporter interference, concentration series – BLA reporter cells, FRET fluorescence, artefact control for TLR9-MyD88 binding inhibitor project, dose response (AID 588341); format: cell-based;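 further: cell based assay in CHO-K1 cells stably expressing beta-lactamase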
Chain of Beta Lactamase (Q932Y6 whole entry): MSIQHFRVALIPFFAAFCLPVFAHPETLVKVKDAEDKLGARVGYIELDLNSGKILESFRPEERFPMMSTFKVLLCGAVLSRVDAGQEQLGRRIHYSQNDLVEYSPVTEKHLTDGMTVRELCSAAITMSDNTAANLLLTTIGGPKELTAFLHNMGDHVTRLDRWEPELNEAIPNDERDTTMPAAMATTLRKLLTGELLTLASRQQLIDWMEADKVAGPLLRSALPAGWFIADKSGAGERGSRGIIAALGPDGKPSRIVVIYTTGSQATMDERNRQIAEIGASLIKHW

[7] = molecular target: T1, Endoribonuclease toxin MazF; test: substrate-only fluorescence increase artefacts – biochemical, single-stranded RNase substrate, counter-screen for MazEF activator project, dose response (AID 588502); format: functional
BJ [8] = test: BJ-TERT fibroblast viability loss – cell-based, RAS-independent, luminescence, dose response (AID 1933); format: functional; conditions: Homo sapiens
BJ [9] = test: cells; format: functional, cell-based; conditions: Homo sapiens
BJ [10] = test: BJ-TERT-LT-ST fibroblast viability loss – cell-based, RAS-independent, luminescence, dose response (AID 1935); format: functional; conditions: Homo sapiens;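 further: BJ fibroblasts immortalized with TERT plus LT and ST oncogenes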
[11] = DRD fibroblast viability loss – cell-based, non-viral oncogenic, luminescence, dose response (AID 1934); format: functional; conditions: Homo sapiens
BJ [12] = test: growth inhibition of engineered Ras-driven BJ cells – cell-based, alamar blue fluorescence, cherrypicked samples, dose response (AID 2631); format: functional; conditions: Homo sapiens;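 further: confirmatory dose-response assay in RAS-dependent BJ fibroblasts engineered with TERT, LT and ST, with cytotoxicity read by fluorescence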

Structure (SMILES): C[C@@H]1CN([C@H](C)CO)C(=O)c2cccc(NC(=O)Nc3ccccc3)c2O[C@H]1CN(C)S(=O)(=O)c1ccc(Cl)cc1
- AC50 (INS1 [1]): 22.4 µM (active)
- AC50 (INS1 [2]): 41.6 µM (active)

Structure (SMILES): O=C(CSc1ccccn1)NC1CCCCC1
- CC50 [3]: > 100 µM (active)
- CC50 [4]: > 100 µM (active)

Structure (SMILES): NC(=O)c1cccc2[nH]c(-c3ccncc3)nc12
- Ki [5]: 1 µM (active)

Structure (SMILES): Cn1cccc1/C=C1\CCC/C(=C\c2cccn2C)C1=O
- IC50 (CHO): > 49.8 µM (inactive)
- EC50 [6]: > 99 µM (inactive)
- IC50 (Beta Lactamase): 10.9 µM (inactive)
- EC50 [7]: 23.9 µM (inactive)

Structure (SMILES): Cc1nc(=O)c2cc(CN(C)c3ccc(C(=O)N[C@@H](CCC(=O)O)C(=O)O)s3)ccc2[nH]1 [RALTITREXED]
- EC50 (BJ [8]): > 150 µM (not active)
- EC50 (BJ [9]): 192 nM (inconclusive)
- EC50 (BJ [10]): > 150 µM (inconclusive)
- EC50 [11]: > 150 µM (inconclusive)
- EC50 (BJ [12]): > 133 µM (inactive)
